From ChEMBL document CHEMBL5576066, “Synthesis and evaluation of 3-hydroxyquinolin-2(1H)-one derivatives as inhibitors of tyrosinase” (Bioorg Med Chem Lett, 2024)

Target: T1, Mushroom tyrosinase (Agaricus bisporus, UniProt O42713+Q00024+C7FF04+C7FF05)
Experiment: Inhibition of mushroom tyrosinase using L-DOPA as substrate by spectrophotometric analysis
Assay type: protein assay

`O=c1[nH]c2ccccc2cc1O` and `O=c1[nH]c2ccc(Br)cc2cc1O` are within 1.5-fold of each other in IC50: 2.74 µM for the first, 2.52 µM for the second.

First: CC(C)C(=O)Nc1nc(-c2ccc(O)cc2O)cs1
Second: Cc1ccc2[nH]c(=O)c(O)cc2c1
The IC50 of the first is 47-fold lower: 0.13 µM for the first, 6.11 µM for the second.

Compared with `O=c1[nH]c2cccc(Cl)c2cc1O`, `Cc1ccc2cc(O)c(=O)[nH]c2c1` is 1.9-fold higher in IC50: 92.7 µM for the first, 173 µM for the second.

Going from `O=c1[nH]c2ccc(F)cc2cc1O` to `Cc1cc2cc(O)c(=O)[nH]c2cc1C`, the IC50 rises from 3.57 µM to 43.5 µM (12-fold).

First: Cc1cc(C)c2cc(O)c(=O)[nH]c2c1
Second: O=c1oc2ccccc2cc1O [3-HYDROXYCOUMARIN]
The IC50 of the first is 370-fold higher: 926 µM for the first, 2.49 µM for the second.

Target: T1, Mushroom tyrosinase
Experiment: Competitive inhibition of mushroom tyrosinase using L-DOPA as substrate assessed as inhibition constant by Lineweaver-Burk plots analysis
Assay type: protein assay

In the case of `Cc1ccc2[nH]c(=O)c(O)cc2c1`, the Ki is reported as 1.41 µM.

Target: T2, Tyrosinase (Homo sapiens, UniProt P14679)
T2 sequence (P14679 whole entry): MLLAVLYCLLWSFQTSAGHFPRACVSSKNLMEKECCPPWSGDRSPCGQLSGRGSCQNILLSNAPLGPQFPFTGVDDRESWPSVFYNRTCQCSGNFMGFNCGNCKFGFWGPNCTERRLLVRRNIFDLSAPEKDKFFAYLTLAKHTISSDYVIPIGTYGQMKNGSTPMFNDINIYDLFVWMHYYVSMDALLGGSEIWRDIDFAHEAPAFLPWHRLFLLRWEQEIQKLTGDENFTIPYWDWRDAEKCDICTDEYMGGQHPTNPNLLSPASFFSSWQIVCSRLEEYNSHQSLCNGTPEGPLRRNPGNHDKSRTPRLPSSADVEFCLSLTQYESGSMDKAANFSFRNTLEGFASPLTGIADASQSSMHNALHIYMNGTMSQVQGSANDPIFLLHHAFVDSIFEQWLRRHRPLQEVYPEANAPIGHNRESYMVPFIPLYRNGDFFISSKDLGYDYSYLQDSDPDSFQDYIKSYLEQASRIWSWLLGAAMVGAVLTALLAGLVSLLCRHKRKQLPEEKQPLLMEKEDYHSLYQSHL
Experiment: Inhibition of human tyrosinase

`O=c1oc2ccccc2cc1O` [3-HYDROXYCOUMARIN] was tested, and the IC50 was 26 µM.
